Here are results for 22 compounds from US9232799B2, “N-[(het)arylethyl)] pyrazole(thio)carboxamides and their heterosubstituted analogues” (BAYER INTELLECTUAL PROPERTY GMBH, priority 2010, dated 2016).

Data set [1] has as its system Botrytis cinerea. Nature of the data set: In vivo preventive test on Botrytis cinerea (beans). The text has this:
To test for preventive activity, young plants are sprayed with the preparation of active compound. After the spray coating has dried on, 2 small pieces of agar covered with growth of Botrytis cinerea are placed on each leaf.

In data set [2] the test system is Sphaerotheca fuliginea. Nature of the data set: In vivo preventive test on Sphaerotheca fuliginea (cucumber). The following applies: 500 ppm of active ingredient, evaluated 7 days after inoculation. The text has this:
One day after this treatment, the plants are inoculated with an aqueous spore suspension of Sphaerotheca fuliginea.

Data set [3] concerns aflatoxines production. Briefly: microbe, parasite or virus in culture. Format: cell-based, Aspergillus parasiticus. Particulars: 50 μM.
The subject of data set [4] is Puccinia triticina. Briefly: In vivo preventive test on Puccinia triticina (wheat). The following applies: evaluated 8 days after inoculation; for Efficacy: dose 500 ppm of active ingredient.
The test system of data set [5] is Fusarium graminearum. Nature of the data set: microbe, parasite or virus in culture. Format: cell-based. The following applies: 50 μM.
Data set [6] is described as follows: logP by HPLC on reversed-phase column (C 18), EEC Directive 79/831 Annex V.A8. In kind it is physicochemical. On the procedure:
In table 1, the logP values were determined in accordance with EEC Directive 79/831 Annex V.A8 by HPLC (High Performance Liquid Chromatography) on a reversed-phase column (C 18), using the method described below: Temperature: 40° C.; […]

For data set [7], the system named is Alternaria solani. Nature of the data set: In vivo preventive test on Alternaria solani (tomato). Particulars: 500 ppm of active ingredient, evaluated 7 days after inoculation. The text has this: One day after this treatment, the plants are inoculated with an aqueous spore suspension of Alternaria solani.
Data set [8] concerns Pyrenophora teres. Briefly: In vivo preventive test on Pyrenophora teres (barley). Particulars: 500 ppm of active ingredient, evaluated 7-9 days after inoculation. The text has this:
One day after this treatment, the plants are inoculated with an aqueous spore suspension of Pyrenophora teres.

Data set [9] has as its system Leptosphaeria nodorum. Briefly: In vivo preventive test on Leptosphaeria nodorum (wheat). Particulars: 500 ppm of active ingredient, evaluated 7-9 days after inoculation. An excerpt: One day after this treatment, the plants are inoculated with an aqueous spore suspension of Leptosphaeria nodorum.
The subject of data set [10] is Blumeria graminis f.sp. hordei. Nature of the data set: In vivo preventive test on Blumeria graminis (barley). The following applies: 500 ppm of active ingredient, evaluated 7 days after inoculation. An excerpt: (§1) To test for preventive activity, young plants are sprayed with the preparation of active compound or active compound combination at the stated rate of application.

Data set [11] relates to Septoria tritici. Nature of the data set: In vivo preventive test on Septoria tritici (wheat). The following applies: 500 ppm of active ingredient, evaluated 21 days after inoculation.
Excerpt: as §1

Where [12] appears, read: Botrytis cinerea, 48 h, preventive, beans, 500 ppm of active ingredient, lesion size 2 days after inoculation, read-out: Efficacy.

Where two headings read alike, the source gives them in different places.

In the case of `Cc1nn(C)c(F)c1C(=O)NCCc1ncc(C(F)(F)F)cc1Cl` [J-1 from WO-2004/074280, N-{2-[3-chloro-5-(trifluoromethyl)pyridin-2-yl]ethyl}-5-fluoro-1,3-dimethyl-1H-pyrazole-4-carboxamide, reference compound], the pest or weed control at 500 ppm in data set [1] (setting [12]) was 0%. In addition, the Efficacy entry was “no protection” in data set [1] (preventive, beans, 500 ppm of active ingredient, lesion size 2 days after inoculation, listed as J-1); 16% in [2]; “less than 20%” in data set [2] (listed as J-1).
As to `CC(Cc1c(F)cccc1Cl)N(C(=O)c1c(C(F)F)nn(C)c1Cl)C1CC1` (centres unmarked) [Example 119], the “% Inhibition of Aflatoxin at 50 μM” value in [3] stood at 95%. The Efficacy is reported as 80% in [4], 100% in data set [7] and 100% in data set [8]. Further, the “% Inhibition of fungal growth at 50 μM” value in [5] came to 79%. Also, the logP – broadly, a log measure of how a compound divides between an organic and an aqueous phase – in data set [6] amounted to 3.94.
As to `CC(c1ccccc1Cl)C(C)N(C(=S)c1c(C(F)F)nn(C)c1F)C1CC1` (centres unmarked) [Example 43], the “% Inhibition of Aflatoxin at 50 μM” value in [3] amounted to 100%. In addition, the Efficacy amounted to 100% in data set [9], 90% in data set [7], 100% in data set [8] and 100% in data set [2]. Moreover, in data set [5], the “% Inhibition of fungal growth at 50 μM” value came out at 90%. In addition, the logP in data set [6] was found to be 4.72.
For the compound `COC(c1ccc(Cl)cc1Cl)C1(NC(=O)c2c(C(F)F)nn(C)c2Cl)CC1` (centres unmarked) [Example 78], in data set [3], the “% Inhibition of Aflatoxin at 50 μM” value is given as 100%. Besides, the Efficacy is recorded as 80% in [9], 100% in [7], 100% in [8] and 100% in data set [2]. In addition, in data set [5], the “% Inhibition of fungal growth at 50 μM” value came to 100%. This compound returned a logP in [6] of 3.70.
For the compound `Cn1cc(C(=O)N(C2CC2)C2CCCC2c2ccc(Cl)cc2Cl)c(C(F)F)n1` (centres unmarked) [7 from WO-2010/09466, N-cyclopropyl-N-[2-(2,4-dichlorophenyl)cyclopentyl]-3-(difluoromethyl)-1-methyl-1H-pyrazole-4-carboxamide, reference compound], the “Efficacy (protection)” value in data set [4] (preventive, 500 ppm of active ingredient) is on record as “less than 5%”.
Consider `CN(CCc1cc(Cl)ccc1Cl)C(=O)c1c(C(F)F)nn(C)c1Cl` [Example 95], for which, in data set [3], the “% Inhibition of Aflatoxin at 50 μM” value was 100%. Also, the values for the Efficacy in [4], in data set [7] and in [8] were 70%, 100% and 100%, respectively. The “% Inhibition of fungal growth at 50 μM” value in [5] came to 100%. In [6], the log partition coefficient (logP) turned out to be 3.33.
`COC(CNC(=O)c1c(C(F)F)nn(C)c1F)c1cc(Cl)cc(Cl)c1` (centres unmarked) [Example 107]: the “% Inhibition of Aflatoxin at 50 μM” value in [3] stood at 98%. The Efficacy in [10] worked out at 78%; in [7], 90%; in data set [8] it was 95%; in data set [11] it was 86%. In addition, the “% Inhibition of fungal growth at 50 μM” value in [5] is given as 74%. For the same compound, the logP in [6] turned out to be 3.33.
Consider `CC(Cc1cc(Cl)cc(Cl)c1)NC(=O)c1c(C(F)F)nn(C)c1F` (centres unmarked) [Example 102], for which, in [3], the “% Inhibition of Aflatoxin at 50 μM” value turned out to be 100%. Also, the Efficacy amounted to 70% in data set [4], 95% in [7] and 100% in data set [8]. Also, the “% Inhibition of fungal growth at 50 μM” value in data set [5] is recorded as 100%. This compound also returned a log partition coefficient (logP) in [6] of 3.48.
Turning to `CC(c1ccccc1Cl)C(C)N(C(=O)c1c(C(F)F)nn(C)c1F)C1CC1` (centres unmarked) [Example 41], in [3], the “% Inhibition of Aflatoxin at 50 μM” value worked out at 100%. In addition, the Efficacy in data set [10] is 100%; in data set [9], 95%; in data set [7], 100%; in [8], 100%; in data set [11], 93%; in [2] it was 74%. The “% Inhibition of fungal growth at 50 μM” value in data set [5] was 100%. In addition, the lipophilicity (logP) in data set [6] worked out at 3.87.
Regarding `CC(Cc1ccc(Cl)cc1)N(C(=O)c1cn(C)nc1C(F)F)C1CC1` (centres unmarked) [F-3 from WO-2007/060164, N-[1-(4-chlorophenyl)propan-2-yl]-N-cyclopropyl-3-(difluoromethyl)-1-methyl-1H-pyrazole-4-carboxamide, reference compound], the pest or weed control at 500 ppm in [1] (setting [12]) came out at 0%. In data set [1] (preventive, beans, 500 ppm of active ingredient, lesion size 2 days after inoculation, listed as F-3), the Efficacy entry is recorded as “no protection”.
With `COC(c1ccc(Cl)cc1Cl)C1(NC(=O)c2c(C(F)F)nn(C)c2F)CC1` (centres unmarked) [Example 79], in [3], the “% Inhibition of Aflatoxin at 50 μM” value came out at 100%. In addition, the Efficacy in data set [9] is on record as 80%; in [7], 100%; in data set [8], 100%; in data set [2] it was 100%. Moreover, the “% Inhibition of fungal growth at 50 μM” value in data set [5] was found to be 98%. In [6], this compound showed a lipophilicity (logP) of 3.46.
`Cn1nc(C(F)F)c(C(=O)NC(C)(C)C(=O)c2ncc(C(F)(F)F)cc2Cl)c1Cl` [Example 195]: the “% Inhibition of Aflatoxin at 50 μM” value in [3] was determined as 100%. The Efficacy in data set [9] came out at 94%; in [7], 95%; in data set [8], 100%; in data set [2] it was 91%. Also, in data set [5], the “% Inhibition of fungal growth at 50 μM” value was determined as 81%. This compound yielded a logP in data set [6] of 3.39.
On to `CC(CN(C(=S)c1c(C(F)F)nn(C)c1F)C1CC1)c1ccccc1` (centres unmarked) [Example 15], for which the “% Inhibition of Aflatoxin at 50 μM” value in data set [3] is 100%. The Efficacy worked out at 100% in data set [9], 90% in data set [7], 100% in data set [8] and 100% in data set [2]. Also, the “% Inhibition of fungal growth at 50 μM” value in data set [5] is 83%. Further, the logP in data set [6] is 3.92.
On to `Cn1nc(C(F)F)c(C(=O)N(C[Si](C)(C)c2ccccc2)C2CCCCC2)c1F` [Example 229], for which the Efficacy in data set [4] is given as 80%; in [7], 90%; in data set [8] it was 70%. The logP in data set [6] amounted to 4.86.
Consider `Cn1cc(C(=O)NCCc2ccc(Cl)cc2Cl)c(C(F)F)n1` [compound CMP3, N-[2-(2,4-dichlorophenyl)ethyl]-3-(difluoromethyl)-1-methyl-1H-pyrazole-4-carboxamide, reference compound], for which, in data set [1] (Botrytis cinerea, 48 h, preventive, beans, 100 ppm of active ingredient, lesion size 2 days after inoculation, read-out: Efficacy), the pest or weed control at 100 ppm was 0%.
On to `Cn1nc(C(F)F)c(C(=O)NC[Si](C)(C)c2ccc(Cl)cc2Cl)c1Cl` [Example 239], for which the Efficacy in data set [4] is on record as 70%; in data set [7], 90%. The logP in [6] is 4.25.
On to `CC(Cc1ccccc1Cl)NC(=O)c1c(C(F)F)nn(C)c1F` (centres unmarked) [Example 31], for which, in [3], the “% Inhibition of Aflatoxin at 50 μM” value was determined as 100%. Further, the Efficacy worked out at 70% in data set [9], 100% in data set [7], 100% in data set [8] and 96% in data set [2]. Further, the “% Inhibition of fungal growth at 50 μM” value in data set [5] was found to be 100%. The compound also gave a log partition coefficient (logP) in [6] of 2.94.
Take `Cc1nn(C)c(F)c1C(=O)N(C[Si](C)(C)c1cc(Cl)cc(Cl)c1)C1CC1` [compound CMP2, N-cyclopropyl-N-{[(3,5-dichlorophenyl)(dimethyl)silyl]methyl}-5-fluoro-1,3-dimethyl-1H-pyrazole-4-carboxamide, reference compound]: the pest or weed control at 500 ppm in data set [1] (Botrytis cinerea, 48 h, dose 500 ppm of active ingredient, table K10, read-out: Efficacy) was 10%; in data set [1] (setting [12]), under 10%.
As for `Cn1cc(C(=O)N[C@H]2C[C@H]2c2ccc(Cl)cc2)c(C(F)F)n1` [1.001 from WO-2007/134799, N-[(1S,2S-1R′,2R)-2-(4-chlorophenyl)cyclopropyl]-3-(difluoromethyl)-1-methyl-1H-pyrazole-4-carboxamide, reference compound], the Efficacy in [1] (preventive, beans, 100 ppm of active ingredient, lesion size 2 days after inoculation) was 8%; in [1] (preventive, beans, 100 ppm of active ingredient, lesion size 2 days after inoculation, listed as 1.001), “less than 10%”; in data set [1] (preventive, beans, 500 ppm of active ingredient, lesion size 2 days after inoculation) it was 89%; in [1] (preventive, beans, 500 ppm of active ingredient, lesion size 2 days after inoculation, listed as 1.001), “at least 85%”.
Take `Cn1nc(C(F)F)c(C(=O)NC[Si](C)(C)c2ccccc2Cl)c1Cl` [Example 232]: in data set [4], the Efficacy was 95%. This compound registered a log partition coefficient (logP) in data set [6] of 3.69.
With `Cc1nn(C)c(F)c1C(=O)NC(C)Cc1ncc(C(F)(F)F)cc1Cl` (centres unmarked) [compound CMP6, N-{1-[3-chloro-5-(trifluoromethyl)pyridin-2-yl]propan-2-yl}-5-fluoro-1,3-dimethyl-1H-pyrazole-4-carboxamide, reference compound], the pest or weed control at 500 ppm in [1] (setting [12]) was 0%.
On to `Cc1nn(C)c(Cl)c1C(=O)NC(C)(C)C(=O)c1ccc2ccccc2c1` [2-1 from WO-2006/016708, 5-chloro-1,3-dimethyl-N-[2-methyl-1-(2-naphthyl)-1-oxopropan-2-yl]-1H-pyrazole-4-carboxamide, reference compound], for which the pest or weed control at 500 ppm in data set [1] (setting [12]) was under 30%.
